In article PMC5053573, “Structure-Based Design of Tetrahydroisoquinoline-7-carboxamides as Selective Discoidin Domain Receptor 1 (DDR1) Inhibitors” (Journal of Medicinal Chemistry, 2016):

What was measured:
PFPK5(P.falciparum) = molecular target: T1, PFPK5(P.falciparum) (Plasmodium falciparum, UniProt P61075); test: biochemical; details: competition binding; read-out: %Ctrl @ 1000nM
T1 construct: gene CRK2

PFCDPK1(P.falciparum) = molecular target: T2, PFCDPK1(P.falciparum) (Plasmodium falciparum, UniProt P62344); test: biochemical; details: competition binding; read-out: %Ctrl @ 1000nM
T2 construct: gene CDPK1

[1] = Pharmacokinetics study in SD rats; format: in vivo; details: male, Sprague-Dawley, rat, whole blood, iv, 4 mg/kg, read-out: CL (L/hr/kg) in rats (converted)
CDK11 = CDK11 (Homo sapiens, UniProt Q9BWU1); test: KINOMEscan binding constant, CDK11; details: read-out: Binding affinity (Kd, nM) CDK11
CDK7 = CDK7 (Homo sapiens, UniProt P50613); test: biochemical; details: read-out: %Ctrl @ 1000nM
EPHA4 = EPHA4 (Homo sapiens, UniProt P54764); test: biochemical; details: read-out: %Ctrl @ 1000nM
PIP5K1A = PIP5K1A (Homo sapiens, UniProt Q99755); test: biochemical; details: read-out: %Ctrl @ 1000nM
AMPK-alpha1 = molecular target: T3, AMPK-alpha1 (Homo sapiens, UniProt Q13131); test: biochemical; details: read-out: %Ctrl @ 1000nM
T3 construct: gene PRKAA1

PKNB(M.tuberculosis) = PKNB(M.tuberculosis) (Mycobacterium tuberculosis, UniProt P9WI81); test: biochemical; details: read-out: %Ctrl @ 1000nM
PKNB(M.tuberculosis), sequence (P9WI81 whole entry, looked up): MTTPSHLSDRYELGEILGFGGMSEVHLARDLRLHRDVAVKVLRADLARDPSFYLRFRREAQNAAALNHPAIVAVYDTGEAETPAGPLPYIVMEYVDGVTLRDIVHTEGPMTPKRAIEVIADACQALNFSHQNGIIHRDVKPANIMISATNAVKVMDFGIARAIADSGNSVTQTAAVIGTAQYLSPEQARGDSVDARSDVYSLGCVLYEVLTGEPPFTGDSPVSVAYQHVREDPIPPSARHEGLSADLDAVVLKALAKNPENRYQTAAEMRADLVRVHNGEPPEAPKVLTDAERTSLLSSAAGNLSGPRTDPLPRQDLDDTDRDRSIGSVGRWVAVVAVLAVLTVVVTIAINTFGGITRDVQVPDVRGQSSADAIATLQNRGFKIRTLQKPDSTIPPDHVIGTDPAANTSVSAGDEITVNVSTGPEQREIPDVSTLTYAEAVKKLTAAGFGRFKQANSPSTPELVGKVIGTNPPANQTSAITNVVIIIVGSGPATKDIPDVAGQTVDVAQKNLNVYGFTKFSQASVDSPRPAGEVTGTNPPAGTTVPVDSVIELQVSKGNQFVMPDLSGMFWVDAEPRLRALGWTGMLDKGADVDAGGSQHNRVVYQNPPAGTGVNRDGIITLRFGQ

PIP5K1A, sequence (Q99755 whole entry): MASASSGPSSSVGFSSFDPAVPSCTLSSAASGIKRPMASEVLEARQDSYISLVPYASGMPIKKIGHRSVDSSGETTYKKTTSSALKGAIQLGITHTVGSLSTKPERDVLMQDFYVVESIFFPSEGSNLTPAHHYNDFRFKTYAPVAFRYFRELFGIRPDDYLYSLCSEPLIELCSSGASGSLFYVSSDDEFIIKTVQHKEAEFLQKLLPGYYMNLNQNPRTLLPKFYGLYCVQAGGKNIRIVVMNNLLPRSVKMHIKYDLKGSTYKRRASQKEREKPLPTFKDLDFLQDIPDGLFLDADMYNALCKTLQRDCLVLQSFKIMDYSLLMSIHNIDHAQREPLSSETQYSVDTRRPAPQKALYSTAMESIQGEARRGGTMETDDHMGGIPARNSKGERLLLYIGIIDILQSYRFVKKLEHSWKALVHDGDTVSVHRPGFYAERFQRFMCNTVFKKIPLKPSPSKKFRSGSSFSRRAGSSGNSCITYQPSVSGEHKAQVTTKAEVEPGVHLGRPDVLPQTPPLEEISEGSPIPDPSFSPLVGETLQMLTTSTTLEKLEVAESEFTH
T1 sequence (P61075 whole entry): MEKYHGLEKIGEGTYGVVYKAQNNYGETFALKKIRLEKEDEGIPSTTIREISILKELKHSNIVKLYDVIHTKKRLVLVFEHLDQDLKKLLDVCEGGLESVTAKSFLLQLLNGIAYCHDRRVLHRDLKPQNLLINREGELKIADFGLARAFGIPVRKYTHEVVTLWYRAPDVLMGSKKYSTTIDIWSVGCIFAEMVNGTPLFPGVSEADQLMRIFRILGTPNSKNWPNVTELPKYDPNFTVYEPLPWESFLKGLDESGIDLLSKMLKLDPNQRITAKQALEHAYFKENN
T2 sequence (P62344 whole entry): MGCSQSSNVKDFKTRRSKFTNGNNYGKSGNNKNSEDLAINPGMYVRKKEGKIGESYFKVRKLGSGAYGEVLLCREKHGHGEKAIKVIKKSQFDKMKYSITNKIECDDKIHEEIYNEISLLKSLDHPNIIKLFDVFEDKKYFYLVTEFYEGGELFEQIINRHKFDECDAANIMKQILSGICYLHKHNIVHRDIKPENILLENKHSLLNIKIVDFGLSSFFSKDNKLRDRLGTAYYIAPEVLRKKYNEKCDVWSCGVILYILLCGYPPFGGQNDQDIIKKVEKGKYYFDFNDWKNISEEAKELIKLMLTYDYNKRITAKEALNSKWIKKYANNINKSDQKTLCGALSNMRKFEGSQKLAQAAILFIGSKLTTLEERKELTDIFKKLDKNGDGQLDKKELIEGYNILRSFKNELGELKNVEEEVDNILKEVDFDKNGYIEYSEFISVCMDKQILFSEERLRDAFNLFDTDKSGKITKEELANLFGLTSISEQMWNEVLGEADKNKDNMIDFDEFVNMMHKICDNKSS
EPHA4, sequence (P54764 whole entry): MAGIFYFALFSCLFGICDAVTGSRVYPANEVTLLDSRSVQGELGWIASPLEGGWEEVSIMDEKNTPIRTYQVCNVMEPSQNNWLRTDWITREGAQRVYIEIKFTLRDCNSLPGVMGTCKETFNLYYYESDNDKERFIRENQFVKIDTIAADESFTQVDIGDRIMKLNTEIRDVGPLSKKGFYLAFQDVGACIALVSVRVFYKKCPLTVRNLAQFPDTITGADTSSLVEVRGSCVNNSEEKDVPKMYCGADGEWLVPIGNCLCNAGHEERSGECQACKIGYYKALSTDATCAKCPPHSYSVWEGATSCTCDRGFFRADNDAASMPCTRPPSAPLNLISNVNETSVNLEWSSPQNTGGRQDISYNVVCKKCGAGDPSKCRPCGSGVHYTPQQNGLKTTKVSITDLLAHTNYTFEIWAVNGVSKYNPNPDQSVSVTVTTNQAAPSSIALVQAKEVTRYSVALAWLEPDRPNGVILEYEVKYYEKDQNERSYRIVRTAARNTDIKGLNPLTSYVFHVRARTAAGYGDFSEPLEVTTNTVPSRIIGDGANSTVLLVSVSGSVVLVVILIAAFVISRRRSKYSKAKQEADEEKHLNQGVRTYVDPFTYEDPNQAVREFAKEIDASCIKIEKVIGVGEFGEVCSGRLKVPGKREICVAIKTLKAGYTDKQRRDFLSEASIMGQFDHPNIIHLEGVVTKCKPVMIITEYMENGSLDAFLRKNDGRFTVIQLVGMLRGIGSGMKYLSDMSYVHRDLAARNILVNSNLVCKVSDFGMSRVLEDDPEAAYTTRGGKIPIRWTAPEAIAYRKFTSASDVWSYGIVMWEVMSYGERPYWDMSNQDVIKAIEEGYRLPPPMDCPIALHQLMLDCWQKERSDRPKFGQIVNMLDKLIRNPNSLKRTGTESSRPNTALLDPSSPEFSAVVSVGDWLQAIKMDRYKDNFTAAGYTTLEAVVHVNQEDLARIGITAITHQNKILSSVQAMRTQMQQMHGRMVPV
CDK7, sequence (P50613 whole entry): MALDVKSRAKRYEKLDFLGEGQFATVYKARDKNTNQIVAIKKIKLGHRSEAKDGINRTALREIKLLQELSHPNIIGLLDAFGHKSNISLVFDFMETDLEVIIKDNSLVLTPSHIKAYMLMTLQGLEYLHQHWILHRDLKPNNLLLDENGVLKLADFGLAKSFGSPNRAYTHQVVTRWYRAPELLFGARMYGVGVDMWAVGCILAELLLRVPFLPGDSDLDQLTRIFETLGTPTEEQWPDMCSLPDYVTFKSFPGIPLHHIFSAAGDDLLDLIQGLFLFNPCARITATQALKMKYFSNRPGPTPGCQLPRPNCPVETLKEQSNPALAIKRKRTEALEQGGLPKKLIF
CDK11, sequence (Q9BWU1 whole entry): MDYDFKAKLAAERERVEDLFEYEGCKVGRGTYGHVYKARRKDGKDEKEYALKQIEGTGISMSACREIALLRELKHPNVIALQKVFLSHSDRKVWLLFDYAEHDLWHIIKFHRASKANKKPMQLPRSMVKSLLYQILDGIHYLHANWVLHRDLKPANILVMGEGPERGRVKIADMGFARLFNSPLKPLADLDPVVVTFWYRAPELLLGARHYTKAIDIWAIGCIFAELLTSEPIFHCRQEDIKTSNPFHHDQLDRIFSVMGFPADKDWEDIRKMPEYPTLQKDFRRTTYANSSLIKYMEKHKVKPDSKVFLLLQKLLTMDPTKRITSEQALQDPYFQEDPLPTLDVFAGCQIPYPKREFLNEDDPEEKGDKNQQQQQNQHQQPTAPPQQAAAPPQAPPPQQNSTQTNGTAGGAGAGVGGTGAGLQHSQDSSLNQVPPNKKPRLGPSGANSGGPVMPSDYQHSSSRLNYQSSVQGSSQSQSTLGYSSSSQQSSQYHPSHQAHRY
T3 sequence (Q13131 whole entry): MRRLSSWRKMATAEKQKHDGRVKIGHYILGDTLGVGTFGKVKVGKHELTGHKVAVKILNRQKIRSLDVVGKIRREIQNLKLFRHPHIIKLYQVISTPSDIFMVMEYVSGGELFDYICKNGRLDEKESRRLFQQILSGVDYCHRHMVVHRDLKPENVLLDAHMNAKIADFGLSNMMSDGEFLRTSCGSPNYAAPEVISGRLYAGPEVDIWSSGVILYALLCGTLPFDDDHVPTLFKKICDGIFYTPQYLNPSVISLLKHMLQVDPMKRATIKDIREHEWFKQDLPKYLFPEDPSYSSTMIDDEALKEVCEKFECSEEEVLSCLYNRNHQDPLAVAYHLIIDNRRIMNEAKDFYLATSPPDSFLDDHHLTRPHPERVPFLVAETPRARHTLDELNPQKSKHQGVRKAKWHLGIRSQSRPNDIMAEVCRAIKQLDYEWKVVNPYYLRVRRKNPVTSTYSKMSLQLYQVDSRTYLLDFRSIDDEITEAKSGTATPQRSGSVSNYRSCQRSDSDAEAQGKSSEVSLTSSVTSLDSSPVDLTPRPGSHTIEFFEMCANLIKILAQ

remaining binding at 1 µM (PFPK5(P.falciparum)): 100%
remaining binding at 1 µM (PFCDPK1(P.falciparum)): 93%
clearance [1]: 17.6 L/h/kg
Kd (CDK11): 370 nM
remaining activity at 1 µM (CDK7): 80%
remaining activity at 1 µM (EPHA4): 77%
remaining activity at 1 µM (PIP5K1A): 100%
remaining activity at 1 µM (AMPK-alpha1): 83%
remaining binding at 1 µM (PKNB(M.tuberculosis)): 100%
SMILES: Cc1cn(-c2cc(NC(=O)c3ccc4c(c3)CN(c3cncnc3)C[C@@H]4C)cc(C(F)(F)F)c2)cn1 [Compound 6j]
